Laboratory results taken from patent publication US7763615B2, “Ecteinascidin analogs for use as antitumour agents” (priority 2001, dated 2010).
Where two headings read alike, the source gives them in different places.

How the values were obtained:
MCF = assay: cells; assay type: cell-based; details: Homo sapiens
In short: (§1)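 Human tumour cells seeded at 5×10^3 per well in RPMI 1640 10% FBS, attached 18 h, then exposed 48 h to samples from 10 to 10^−8 μg/ml in DMSO/EtOH/PBS. Growth measured by SRB staining after TCA fixation, OD 490 nm, triplicate wells; GI, TGI and LC derived.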

A498 = assay: cells; assay type: cell-based; details: Homo sapiens
In short: as §1

A549 = assay: cells; assay type: cell-based; details: for GI50: read-out: GI50
In short: as §1

DU145 = assay: cells; assay type: cell-based; details: for GI50 / IC (TGI): DU145, 48 hours exposure, SRB; for CC50: read-out: LC50, DU145, 48 hours exposure, SRB
In short: as §1

MEL-28 = assay: cells; assay type: cell-based
In short: as §1

SW-620 = assay: cells; assay type: cell-based; details: Homo sapiens
In short: as §1

MB231 = assay: cells; assay type: cell-based; details: Homo sapiens
In short: as §1

HT29 = assay: cells; assay type: cell-based; details: Homo sapiens, HT-29, 48 h; for GI50 / IC (TGI): HT29, 48 hours exposure, SRB; for CC50: read-out: LC50, HT29, 48 hours exposure, SRB
In short: as §1

[1] = tested on: FDC-P1, normal mouse myelogeous stem cells; details: 24 h
[2] = tested on: NRK-52E, normal rat kidney cells; details: 24 h
[3] = tested on: H9c2 (2-1), normal rat cardiac muscle cells; details: 24 h
[4] = tested on: AML-12, normal mouse liver cells; details: 24 h
Procedure: In order to assess the cytotoxicity of the drugs to normal cells, we used 96 well plates plated at a density of 5000 cells per well (except for the FDC-P1 which were plated at 12,000 cells per well) with normal cell lines (ATCC, Table 1) maintained as per the directions of the ATCC: AML-12, normal mouse liver cells; NRK-52E, normal rat kidney cells; L8, normal rat skeletal muscle cells; FDC-P1, normal mouse myelogeous stem cells; and H9c2 (2-1), normal rat cardiac muscle cells. The cells in each plate were permitted to settle overnight before adding the test drug.
To each well (100 μl medium) 10 μl of drug in media was added at varying concentrations (1×10-10-0.01 mg/ml final concentration) and further incubated overnight at 37° C. with 5% CO2. After 24 h the following assays were performed. All experiments were repeated at least 3 times and were assayed in duplicate.
MTS assay (CellTiter 96 aqueous) was performed according to the manufacturer's (Promega) directions (for all cell types). Cell viability (mitochondrial activity) is determined via enzymatic conversion of the formazan substrate.

[5] = tested on: L8, normal rat skeletal muscle cells; details: 24 h
IGROV = assay: cells; assay type: cell-based
In short: as §1

PANC-1 = assay: cells; assay type: cell-based; details: PANC-1, 48 hours exposure, SRB
In short: as §1

LNCAP = assay: cells; assay type: cell-based; details: Homo sapiens, LNCaP, 48 h
In short: as §1

LOVO-DOX = assay: cells; assay type: cell-based
In short: as §1

LOVO = assay: cells; assay type: cell-based; details: Homo sapiens, LoVo, 48 h
In short: as §1

IGROV-ET = assay: cells; assay type: cell-based
In short: as §1

SK-BR3 = assay: cells; assay type: cell-based; details: SK-BR3, 48 hours exposure, SRB
In short: as §1

K562 = assay: cells; assay type: cell-based; details: K562, 48 hours exposure, SRB
In short: as §1

SK-OV3 = assay: Inhibition of cells growth by colorimetric assay (SRB), SK-OV3; assay type: cell-based
Source text: (§2) The finality of these assays is to interrupt the growth of a “in vitro” tumor cell culture by means of a continued exhibition of the cells to the sample to be testing.
(§3) A colorimetric type of assay, using sulphorhodamine B (SRB) reaction has been adapted for a quantitative measurement of cell growth and viability [following the technique described by Philip Skehan, et al. (1990), New colorimetric cytotoxicity assay for anticancer drug screening, J. Natl. Cancer Inst., 82:1107-1112]
(§4) This form of the assay employs 96 well cell culture microplates of 9 mm diameter (Faircloth, 1988; Mosmann, 1983). Most of the cell lines are obtained from American Type Culture Collection (ATCC) derived from different human cancer types.
(§5) Cells are maintained in RPMI 1640 10% FBS, supplemented with 0.1 g/l penicillin and 0.1 g/l streptomycin sulphate and then incubated at 37° C., 5% CO2 and 98% humidity. For the experiments, cells were harvested from subconfluent cultures using trypsin and resuspended in fresh medium before plating.
(§6) Cells are seeded in 96 well microtiter plates, at 5×10^3 cells per well in aliquots of 195 μl medium, and they are allowed to attach to the plate surface by growing in drug free medium for 18 hours. Afterward, samples are added in aliquots of 5 μl in a ranging from 10 to 10^−8 μg/ml, dissolved in DMSO/EtOH/PBS (0.5:0.5:99). After 48 hours exposure, the antitumor effect are measured by the SRB methodology: cells are fixed by adding 50 μl of cold 50% (wt/vol) trichloroacetic acid (TCA) and incubating for 60 minutes at 4° C. Plates are washed with deionized water and dried. One hundred μl of SRB solution (0.4% wt/vol in 1% acetic acid) is added to each microtiter well and incubated for 10 minutes at room temperature. Unbound SRB is removed by washing with 1% acetic acid. Plates are air dried and bound stain is solubilized with Tris buffer. Optical densities are read on a automated spectrophotometric plate reader at a single wavelength of 490 nm.
(§7) The values for mean+/− SD of data from triplicate wells are calculated. Some parameters for cellular responses can be calculated: GI=growth inhibition, TGI=total growth inhibition (cytostatic effect) and LC=cell killing (cytotoxic effect).

H-MEC-1 = assay: Inhibition of cells growth by colorimetric assay (SRB), H-MEC-1; assay type: cell-based
Source text: as §2, §3, §4, §5, §6, §7

[6] = Homo sapiens, A549, 48 h, A549, 48 hours exposure, SRB
[7] = Homo sapiens, SK-MEL-28, 48 h, MEL-28, 48 hours exposure, SRB

## COc1c(C)cc2c(c1O)[C@@H]1C3[C@@H]4SC[C@]5(NCCc6c5[nH]c5ccccc65)C(=O)COC[C@@H](c5c6c(c(C)c(OC(C)=O)c54)OCO6)N3[C@@H](O)[C@H](C2)N1C (stereo partly shown) [Compound 26]
MCF; 48 h, read-out: LC50
  CC50: 11.9 nM
MCF; MCF, 48 hours exposure, SRB
  GI50: 2.65 nM
MCF; MCF, 48 hours exposure, SRB, read-out: TGI
  IC (TGI): 5.3 nM
A498; A498, 48 h, read-out: LC50
  CC50: 26.5 nM
A498; A498, 48 hours exposure, SRB
  GI50: 2.65 nM
  IC (TGI): 6.62 nM
A549; [6]
  GI50: 2.65 nM
A549; Homo sapiens, A549, 48 h, A549, 48 hours exposure, SRB, read-out: TGI
  IC (TGI): 3.97 nM
A549; Homo sapiens, A549, 48 h, read-out: LC50, A549, 48 hours exposure, SRB
  CC50: 13.2 nM
DU145; Homo sapiens, DU-145, 48 h
  GI50: 2.65 nM
  IC (TGI): 3.97 nM
  CC50: 10.6 nM
MEL-28; [7]
  GI50: 2.65 nM
  IC (TGI): 5.3 nM
MEL-28; Homo sapiens, SK-MEL-28, 48 h, read-out: LC50, MEL-28, 48 hours exposure, SRB
  CC50: 10.6 nM
SW-620; SW-620, 48 h, read-out: LC50
  CC50: 79.5 nM
SW-620; SW-620, 48 hours exposure, SRB
  IC (TGI): 7.95 nM
SW-620; SW-620, 48 hours exposure, SRB, read-out: GI50
  GI50: 2.65 nM
MB231; 48 h, read-out: LC50
  CC50: 13.2 nM
MB231; MB231, 48 hours exposure, SRB
  GI50: 2.65 nM
MB231; MB231, 48 hours exposure, SRB, read-out: TGI
  IC (TGI): 5.3 nM
HT29
  GI50: 3.97 nM
  IC (TGI): 7.95 nM
  CC50: 13.2 nM
[1]
  Myelo: 1.03E−07
[2]
  Kidney: 4.60E−08
[3]
  Heart: 6.43E−07
[4]
  Liver: 1.06E−06
[5]
  Skeletal: 3.71E−08

## COc1c(C)cc2c(c1O)[C@@H]1C3[C@@H]4SC[C@]5(NC(C)Cc6c5[nH]c5ccc(O)cc65)C(=O)COC[C@@H](c5c6c(c(C)c(OC(C)=O)c54)OCO6)N3[C@@H](O)[C@H](C2)N1C (stereo partly shown) [Compound 37]
IGROV; 48 hours exposure, SRB
  GI50: 2.82 nM
  TGI: 7.06E−09 Molar
IGROV; read-out: LC50, 48 hours exposure, SRB
  CC50: 613 nM
A549; A549, 48 hours exposure, SRB
  TGI: 2.17E−08 Molar
A549; [6]
  GI50: 4.23 nM
A549; read-out: LC50, A549, 48 hours exposure, SRB
  CC50: 138 nM
PANC-1; Homo sapiens, PANC-1, 48 h
  GI50: 3.12 nM
  IC (TGI): 11.8 nM
PANC-1; read-out: LC50
  CC50: 3020 nM
LNCAP; 48 hours exposure, SRB
  GI50: 0.26 nM
  IC (TGI): 0.856 nM
LNCAP; read-out: LC50, LNCAP, 48 hours exposure, SRB
  CC50: 4.75 nM
LOVO-DOX; Homo sapiens, 48 h, LOVO-DOX, 48 hours exposure, SRB
  GI50: 61.7 nM
LOVO-DOX; Homo sapiens, 48 h, read-out: LC50, LOVO-DOX, 48 hours exposure, SRB
  CC50: 12700 nM
LOVO-DOX; LOVO-DOX, 48 hours exposure, SRB
  TGI: 4.10E−07 Molar
DU145
  GI50: 4.6 nM
DU145; Homo sapiens, DU-145, 48 h
  IC (TGI): 10.6 nM
  CC50: 12700 nM
MEL-28; [7]
  GI50: 2.4 nM
  IC (TGI): 6.82 nM
MEL-28; read-out: LC50, MEL-28, 48 hours exposure, SRB
  CC50: 33.5 nM
LOVO; 48 hours exposure, SRB
  GI50: 2.92 nM
  IC (TGI): 8.97 nM
LOVO; read-out: LC50, LOVO, 48 hours exposure, SRB
  CC50: 12700 nM
IGROV-ET; Homo sapiens, 48 h, IGROV-ET, 48 hours exposure, SRB
  IC (TGI): 119 nM
IGROV-ET; Homo sapiens, 48 h, read-out: LC50, IGROV-ET, 48 hours exposure, SRB
  CC50: 12700 nM
IGROV-ET; IGROV-ET, 48 hours exposure, SRB
  GI50: 37.6 nM
SK-BR3
  GI50: 2.96 nM
  TGI: 6.80E−09 Molar
SK-BR3; read-out: LC50
  CC50: 141 nM
K562; Homo sapiens, K562, 48 h
  GI50: 0.492 nM
  IC (TGI): 1.36 nM
K562; read-out: LC50
  CC50: 12.7 nM
HT29
  GI50: 3.71 nM
  IC (TGI): 14 nM
  CC50: 12700 nM
[1]
  Myelo: 4.59E−09
SK-OV3; Homo sapiens, SK-OV-3, 48 h, SK-OV3, 48 hours exposure, SRB
  GI50: 3.57 nM
SK-OV3; Homo sapiens, SK-OV-3, 48 h, read-out: LC50, SK-OV3, 48 hours exposure, SRB
  CC50: 12700 nM
SK-OV3; SK-OV3, 48 hours exposure, SRB
  TGI: 1.07E−08 Molar
[2]
  Kidney: 2.92E−08
[3]
  Heart: 1.74E−08
[4]
  Liver: 5.46E−09
[5]
  Skeletal: 2.22E−08
H-MEC-1; H-MEC-1, 48 hours exposure, SRB
  TGI: 3.58E−08 Molar
H-MEC-1; Homo sapiens, HMEC-1, 48 h, H-MEC-1, 48 hours exposure, SRB
  GI50: 2.22 nM
H-MEC-1; Homo sapiens, HMEC-1, 48 h, read-out: LC50, H-MEC-1, 48 hours exposure, SRB
  CC50: 12700 nM
